Measured values published in patent US5760036A, “Aminediol protease inhibitors” (E. R. Squibb & Sons, Inc., priority 1995, dated 1998).
Where a name gives a salt, the structure may show the parent alone. Read-outs that look alike come from different tables or passages of the source.

Tests used:
HIV protease = target: T1, HIV protease (Human immunodeficiency virus type 1 group M subtype B, UniProt P04585); assay: HIV Protease Assay; type: biochemical
T1 construct: and purified protease
Method in brief: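 At a single final concentration of 10 μM (4% DMSO), inhibitors were added to a 30-minute, 37° C reaction of purified enzyme with 450 μM H2N-Val-Ser-Gln-Asn-(β-naphthyl-alanine)-Pro-Val-Ile-OH at pH 5.5 (sodium acetate, BSA). Hydrolysis was quantified by reverse-phase HPLC with 220 nm detection after acid quench.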

[1] = test system: RF strain of HIV (CEM-SS cells); assay: Cell Culture Anti-HIV Activity (cell viability, formazan); type: cell-based; conditions: Human immunodeficiency virus 1, CEM-SS, 144 h, CEM-SS cells, RF strain of HIV, multiplicity of infection 0.04, 6 days at 37° C., 450 nm; read-out: HIV (CEM Cells) IC50
Method in brief: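 Half-log compound dilutions added to CEM-SS cells (5000/well) carrying HIV RF (MOI 0.04), 6 days, 37° C. Cell protection measured as formazan from tetrazolium, A450. IC50: drug level restoring infected-cell formazan to 50% of the uninfected untreated control.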

[2] = pH 5.5, 10 μM inhibitor, 4% DMSO, 450 μM substrate, pH 5.5, 30 minutes at 37° C., RP-HPLC, read-out: HIV Protease % Inhibition at 10 μM

Row | Compound | inhibition at 10 µM (HIV protease; pH 5.5, read-out: HIV Protease % Inhibition at 10 μM) | IC50 [1] | inhibition at 10 µM (HIV protease; [2])
1 | CC(C)(C)OC(=O)N[C@@H](Cc1ccccc1)[C@H](O)CNC[C@@H](O)[C@H](Cc1ccccc1)NC(=O)[C@](C)(O)c1ccccc1 [Compound 353, [1S-[1R*,2S*[2S*,3R*(S*)]]]-[3-[[3-[(2-Hydroxy-1-oxo-2-phenylpropyl)amino]-2-hydroxy-4-phenylbutyl]amino]-2-hydroxy-l-(phenylmethyl)propyl]carbamic acid, 1,1-dimethylethyl ester] | 98% | 1100 nM | 
2 | CC(C)[C@H](NC(=O)[C@@H](O)Cc1ccccc1)C(=O)N[C@@H](Cc1ccccc1)[C@H](O)CNC[C@@H](O)[C@H](Cc1ccccc1)NC(=O)OC(C)(C)C [Compound 77, [S-[1R*,2S*(2S*,3R*,N^2 R*]]-N-[3-[[3-[[(1,-Dimethylethoxy)carbonyl]amino]-2-hydroxy-4-phenylbutyl]amino]-2-hydroxy-(phenyyl-methyl)propyl]N^2-(2-hydroxy-1-oxo-3-phenyl-propyl)-L-valinamide] |  | 200 nM | 99%
3 | CC(C)[C@H](NC(=O)OCc1ncc[nH]1)C(=O)N[C@@H](Cc1ccccc1)[C@H](O)CNC[C@@H](O)[C@H](Cc1ccccc1)NC(=O)OC(C)(C)C (relative stereo) [Compound 249, [1R*,2S*(2S*,3R*)]-N-[3-[[3-[[(1,1-Dimethylethoxy)carbonyl]amino]-2-hydroxy-4-phenylbutyl]amino]-2-hydroxy-1-(phenylmethyl)propyl]-N^2-[(1H-imidazol-2-ylmethoxy)carbonyl]-L-valinamide, acetate (2:3) salt] |  | 840 nM | 100%
